Patent publication US20260191887A1, “METHODS OF TREATING INFLAMMATION” (THERAPEUTIKOS, INC., priority 2022, published 2026)

How the values were obtained:
[1] = system: mouse macrophage cell line RAW264.7 cells; assay: WST-1 cytotoxicity assay in RAW264.7 cells; type: cell-based; conditions: concentrations up to 5 mM, 24 h, n=8
Experimental: Mouse RAW264.7 macrophage cell line (ATCC; Manassas, VA, USA) was maintained in DMEM culture medium containing 10% FBS and 1% antibiotic mix. For cell treatment, the test drugs at different doses were added to the culture 0.5 h prior to addition of 100 ng/mL LPS (Sigma-Aldrich Co., St Louis, MO, USA) and then cells were co-treated with LPS for 24 hours. Macrophages in the control group and the treatment groups was seeded on a 96-well plate for 24 hrs and the cell number was counted using the WST-1 kit (Fisher Scientific). After removal of the supernatant, 150 μL of the fresh medium was added into each well. Then 15 μL of the Cell Proliferation Reagent WST-1 was added and incubated with cells for 3 hrs in dark with a humidified atmosphere of 5% carbon dioxide at 37° C. Each sample was determined at 450 nm on a microplate reader. No drugs were added in the non-treatment group (NT). There were eight repeats in each group (n=8). The experiment was duplicated.

nitric oxide = assay: Griess nitrite production assay in LPS-activated RAW264.7 macrophages; type: cell-based, mouse; conditions: LPS 100 ng/mL; NDX1 0.2, 1 and 5 mM, NDX2 0.5 and 5 mM, NAG 0.5-5 mM; n=6
Experimental: (§1) Mouse RAW264.7 macrophage cell line (ATCC; Manassas, VA, USA) was maintained in DMEM culture medium containing 10% FBS and 1% antibiotic mix. For cell treatment, the test drugs at different doses were added to the culture 0.5 h prior to addition of 100 ng/mL LPS (Sigma-Aldrich Co., St Louis, MO, USA) and then cells were co-treated with LPS for 24 hours.
The Griess reagent system is based on the chemical reaction which uses sulfanilamide and N-1-napthylethylenediamine dihydrochloride (NED) under acidic (phosphoric acid) conditions. This system detects nitrite production. In the present experiments, nitric oxide detection was performed by a commercial kit (Promega Corporation, Madison, WI, USA), according to the manufacturer's manual. Briefly, all experimental samples and standards containing the dilution series for the nitrite standard reference curve were mixed with 50 μL of the sulfanilamide solution and incubated 10 mins at room temperature without light in a 96-well plate. Then 50 μL of the NED Solution was added to each well and incubated 10 mins at room temperature without light. The optical density (OD) was determined at 530 nm on a microplate reader within 30 mins. No LPS and the other drugs were added in the non-treatment group (NT). The experiment was duplicated. There were six repeats in each group (n=6). […].

IL-6 [2] = assay: IL-6 ELISA in LPS-activated primary mouse peritoneal macrophages; type: cell-based; conditions: LPS 100 ng/mL; NDX1 and NDX2 0.01, 0.1, 1 mM; NAG 0.1 and 1 mM; n=8
Experimental: • 1. Non treatment (NT) • 2. LPS 100 ng/mL • 3. LPS 100 ng/mL+NDX1 dose1* • 4. LPS 100 ng/mL+NDX1 dose2* • 5. LPS 100 ng/mL+NDX1 dose3* • 6. LPS 100 ng/mL+NDX2 dose1 • 7. LPS 100 ng/mL+NDX2 dose2 • 8. LPS 100 ng/mL+NDX2 dose3 • 9. LPS 100 ng/mL+NAG dose2 • 10. LPS 100 ng/mL+NAG dose3 (*dose 1, 2, 3 were selected as low, middle and high dose with no cytotoxicity from the cytotoxic assay)
The peritoneal macrophages were isolated from peritoneal cavity, and cultured in Dulbecco's modified Eagle's medium (DMEM, Gibco BRL, Gaithersburg, MD) supplemented with 10% fetal bovine serum (FBS) (Hyclone Laboratories, Logan, VT) and 100 IU/mL penicillin G and 100 µg/mL streptomycin, in a humidified atmosphere of 5% carbon dioxide at 37° C. Cells will grow on a 96-well plate and co-treated with 100 ng/ml LPS (Sigma-Aldrich) 0.5 hours after addition of BNAGs and NAG. Twenty-four hours later, the cell number was counted by using the WST-1 kit (Fisher Scientific). After removal of the supernatant, […] new medium was added into each cell. […] Each sample was determined at 450 nm on a microplate reader.
The amounts of IL-6 and TNFα were measured by a commercial ELISA kit (Sigma-Aldrich), following the instructions provided by the manufacturer. […] The resultant solutions were read at 450 nm on a microplate reader.

IL-6 [3] = assay: IL-6 ELISA in LPS-activated RAW264.7 macrophages; type: cell-based, mouse; conditions: LPS 100 ng/mL, concentrations up to 5 mM, n=8
Experimental: as §1
The amounts of IL-6 in culture medium from different treatments were measured by a commercial ELISA kit (Sigma-Aldrich), following the instructions provided by the manufacturer. Briefly, cells were seeded on a 96-well plate and various treatments were performed. The culture medium were collected and mixed with different assay reagents step by step. The resultant solutions were read at 450 nm on a microplate reader. There were eight repeats in each group (n=8). *P<0.05 vs LPS group. The experiment was duplicated.

[4] = system: primary human chondrocytes; assay: WST-1 cell proliferation assay in primary human chondrocytes with IL-1β; type: cell-based; conditions: IL-1β 5 ng/mL, concentrations up to 5 mM, n=6
Source text: Normal cartilage tissues. Articular cartilages were harvested from the femoral condyles and the tibial plateaus, which were obtained from autopsy services at the hospital of UVA and approved by the Institutional Review Board. All tissue samples were graded according to a modified Mankin scale, and only cartilages without evidence of osteoarthritis were used as a source of chondrocytes. The interval between death and the time the cartilages were harvested from these knee joints in the laboratory were at least 24 h and ranged up to 96 h. Cartilage shavings were harvested at the operation room and placed in tissue culture medium (DMEM, 10% FBS, penicillin, streptomycin), and shipped to the laboratory at 4° C. The tissues were processed in the laboratory within 24 h after harvest.
Chondrocytes were isolated from the cartilage by collagenase digestion and maintained in continuous monolayer cultures in DMEM containing 10% FBS. Cell viability after chondrocyte isolation by collagenase digestion of normal cartilage was >95%, determined by the typan blue stain (Sigma-Aldrich). Experiments were performed with primary or first passage cells. When necessary, trypsin will be used for cell passage.
Human chondrocytes were seeded in a 96-well plate (5×10^4/well) and incubated with culture medium overnight. […]

CC(=O)N[C@H]1C(O)O[C@H](CO)[C@@H](O)[C@@H]1O (some centres unmarked) [NAG, N-acetyl glucosamine]
toxicity / cell growth (WST-1) [1]: less toxicity than NDX1
inhibition of nitric oxide (nitrite) production (nitric oxide): couldn't
reduction of IL-6 production (ELISA) (IL-6 [2]): could significantly reduce IL-6 and TNFa production
reduction of IL-6 production (ELISA) (IL-6 [3]): could significantly reduce IL-6 production
effect on cell growth / toxicity (WST-1) [4]: could prevent inhibition of cell proliferation induced by IL-1β
